Data as given in patent US20240409935A1, “Atg8ylation coordinates stress granule formation and mTOR inactivation in response to lysosomal damage” (priority 2023, published 2024).

Columns and labels:
[1] = test system: polyA RNA in G3BP1 puncta; test: Confocal microscopy of G3BP1 and polyA RNA (Cy3-oligo[dT]) by FISH in U2OS cells; format: cell-based, human; conditions: 2 mM LLOMe for 30 min
[2] = test system: mTOR; test: mTOR/mTORC1 activity by phosphorylation of its substrates (4EBP1 S65, ULK1 S757, S6K1 T389) in U2OS cells; format: cell-based, human; conditions: U2OS cells
[3] = test system: GABARAP; test: Immunoblot analysis of GABARAP lipidation in U2OS cells; format: cell-based, human; conditions: 2 mM LLOMe, indicated time points
[4] = test system: ALIX, PKR and PACT; test: Co-IP analysis of interactions among FLAG-ALIX, PKR and PACT in HEK293T cells; format: cell-based, human; conditions: 1 mM LLOMe for 30 min
Experimental: HEK293T cells expressing FLAG (control) or FLAG-ALIX Were treated with 1 mM LLOMe for 30 min. Cell lysates Were immunoprecipitated with anti-FLAG antibody and immunoblotted for indicated proteins. […] FL (full length); Bro1 (Bro1 domain); V domain; PRD (proline-rich domain). Numbers, residue positions. (ii) Schematic illustration of the Ca^2+/ALG-2-induced open conformation of ALIX. […] HEK293T cells expressing FLAG tagged ALIX mutants and Myc-PKR Were treated with 1 mM LLOMe for 30 min. Cell lysates Were immunoprecipitated with anti-GFP antibody and immunoblotted for indicated proteins. FIG. 12F Analysis of proteins associated with purified lysosomes (LysoIP; TMEM192-3×HA) from HEK293T cells transfected with scrambled siRNA as control (SCR), or ALIX siRNA for knockdown (ALIX^KD). Cells Were treated with 1 mM LLOMe for 30 min. FIG. 12G Schematic summary of the findings in FIGS. 5 and S5. One of three independent western Blot experiments shown. See also FIG. 1S1.

[5] = test system: G3BP1 puncta (stress granules) in U2OS cells; test: HCM quantification of G3BP1 puncta (stress granule formation) in U2OS cells; format: cell-based, human
[6] = test system: G3BP1 puncta in Huh7 cells; test: HCM quantification of G3BP1 puncta in Huh7 cells; format: cell-based, human; conditions: 2 mM LLOMe for 30 min
[7] = test system: eIF2α (S51) phosphorylation; test: Immunoblot analysis of eIF2α (S51) phosphorylation in U2OS cells; format: cell-based, human; conditions: U2OS cells
[8] = test system: ATF4; test: Immunoblot analysis of ATF4 in U2OS cells; format: cell-based, human; conditions: 2 mM LLOMe, indicated time points
[9] = test system: PKR; test: Immunoblot analysis of PKR (T446) phosphorylation in U2OS cells; format: cell-based, human; conditions: 2 mM LLOMe for 30 min
Excerpt: The level of phosphorylation of eIF2α (S51) is quantified based on three independent experiments. […] Red masks, computer-identified G3BP1 puncta. […] Ctrl, control (untreated cells). Data, means±SEM; HCM: n≥3 (each experiment: 500 valid primary objects/cells per Well, ≥5 Well s/sample). *p<0.05, **p<0.01, ANOVA. See also FIG. 2S.

[10] = test system: G3BP1 puncta in BMM (bone-marrow-derived macrophages); test: HCM quantification of G3BP1 puncta in BMM; format: cell-based, murine; conditions: 2 mM LLOMe for 2 h
Experimental: Three groups of proteins are labeled (ESCRT components in green, autophagy factors in blue and stress granule components in purple). […] The dotted orange line indicates the significance cut-off (P<0.05). […] The significant increased proteins in LysoIP LC/MS/MS were analyzed by STRING functional protein association networks. […] Strength, Log 10(observed/expected) describes how large the enrichment effect is. […] TMEM192-2×FLAG, control. […] U20S cells Were treated with Earle's Balanced Salt Solution (EBSS), 4 mM LOMe, 2 mM LLOMe, 200 μM GPN, or 400 μg/mL silica for 30 min. White masks, algorithm-defined cell boundaries (primary objects); red masks, computer-identified G3BP1 puncta (target objects). […] The level of phosphorylation of eIF2α (S51) is quantified based on three independent experiments. […] The level of ATF4 and phosphorylation of eIF2α (S51) and 4EBP1 (S65) are quantified based on three independent experiments. […]
The inventors tested whether lysosomal damage induces SG formation using the conventional marker of SGs G3BP1 (Jain et al., 2016; Kedersha et al., 2005; Yang et al., 2020). […] For unbiased quantification, the inventors employed high content microscopy (HCM), which depends on epifluorescence mode to capture all cellular profiles in a volume. […] In all cell lines and primary cells tested, SG formation was observed upon lysosomal damage and quantified by HCM.

[11] = indicated dose of LLOMe for 30 min
[12] = 2 mM LLOMe 30 min followed by 1 h washout

SMILES: COC(=O)[C@H](CC(C)C)NC(=O)[C@@H](N)CC(C)C [LLOMe, L-leucyl-L-leucine methyl ester]
- overlap of G3BP1 puncta with polyA RNA probe (Cy3-oligo-dT, FISH) [1]: completely overlapped with polyA RNA probe
- ULK1 phosphorylation by mTOR at Ser757 ([2]; 2 mM LLOMe for 30 min): diminished
- mTOR activity as measured by 4EBP1 phosphorylation ([2]; 2 mM LLOMe, indicated time points): inhibition of mTOR
- mTORC1 inactivation (4EBP1 S65), dose dependence [2, 11]: mTORC1 inactivation in a dose-dependent manner
- GABARAP lipidation [3]: GABARAP was lipidated
- interaction between FLAG-ALIX and endogenous PKR and PACT (co-IP) [4]: notably enhanced
- number of SGs upon LLOMe washout [5, 12]: reduction in the number of SGs
- SG formation response (G3BP1 puncta) ([5]; agent alone for 30 min (2 mM LLOMe, 200 μM GPN, 400 μg/mL silica, 4 mM LOMe)): robust SG formation response
- SG response (G3BP1 puncta) [6]: SG response was detected
- eIF2α pS51 response after LLOMe washout [7, 12]: subsided
- phosphorylation of eIF2α on Ser51 ([7]; 2 mM LLOMe for 30 min): induced phosphorylation of eIF2α on Ser51
- phosphorylated eIF2α at later times during treatment ([7]; 2 mM LLOMe, later time points): reduced levels of phosphorylated eIF2α at later times
- eIF2α phosphorylation, dose dependence [7, 11]: induced eIF2α phosphorylation
- ATF4 expression [8]: increased ATF4 expression over time
- PKR activation assessed by phosphorylation at Thr446 [9]: PKR was activated
- SG formation (G3BP1 puncta) [10]: SGs Were detected
